Source: PubChem BioAssay (NCI)
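Five compound concentrations were applied to cells in 96-well plates for 48 hours; endpoints were derived by simple linear interpolation of the resulting dose-response curve. TGI denotes the concentration required for complete inhibition of growth.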

Tests used:
Assay in all cases: DTP human tumour cell line panel, 48 h
SNB-19 CNS = system: SNB-19 CNS
HCT-15 colon = system: HCT-15 colon
MALME-3M melanoma = system: MALME-3M melanoma
OVCAR-8 ovarian = system: OVCAR-8 ovarian
HOP-92 NSCLC = system: HOP-92 NSCLC
PC-3 prostate = system: PC-3 prostate
DU-145 prostate = system: DU-145 prostate
NCI-H226 lung = system: NCI-H226 lung
EKVX NSCLC = system: EKVX NSCLC
BT-549 breast = system: BT-549 breast
ACHN renal = system: ACHN renal
SNB-75 CNS = system: SNB-75 CNS
HS 578T breast = system: HS 578T breast
NCI-H23 lung = system: NCI-H23 lung
SK-OV-3 ovarian = system: SK-OV-3 ovarian
SF-268 CNS = system: SF-268 CNS
HCT-116 colon = system: HCT-116 colon
COLO 205 colon = system: COLO 205 colon
SN12C renal = system: SN12C renal
LOX IMVI melanoma = system: LOX IMVI melanoma
TK-10 renal = system: TK-10 renal
A549 NSCLC = system: A549 NSCLC
HOP-62 NSCLC = system: HOP-62 NSCLC
UACC-62 melanoma = system: UACC-62 melanoma
NCI-H460 lung = system: NCI-H460 lung
MDA-N = system: MDA-N
SK-MEL-28 melanoma = system: SK-MEL-28 melanoma
SF-295 CNS = system: SF-295 CNS
IGROV1 ovarian = system: IGROV1 ovarian
SF-539 CNS = system: SF-539 CNS
HCC-2998 colon = system: HCC-2998 colon
KM12 colon = system: KM12 colon
U251 CNS = system: U251 CNS
HT29 colon = system: HT29 colon
MDA-MB-435 = system: MDA-MB-435
HL-60(TB) leukemia = system: HL-60(TB) leukemia
CCRF-CEM leukemia = system: CCRF-CEM leukemia
K-562 leukemia = system: K-562 leukemia
RXF 393 renal = system: RXF 393 renal
OVCAR-5 ovarian = system: OVCAR-5 ovarian
T-47D breast = system: T-47D breast
RPMI-8226 leukemia = system: RPMI-8226 leukemia
UO-31 renal = system: UO-31 renal
SR leukemia = system: SR leukemia
SK-MEL-5 melanoma = system: SK-MEL-5 melanoma
SW-620 colon = system: SW-620 colon
MCF7 breast = system: MCF7 breast
MOLT-4 leukemia = system: MOLT-4 leukemia
OVCAR-4 ovarian = system: OVCAR-4 ovarian
786-0 renal = system: 786-0 renal
M14 melanoma = system: M14 melanoma
OVCAR-3 ovarian = system: OVCAR-3 ovarian
SK-MEL-2 melanoma = system: SK-MEL-2 melanoma
MDA-MB-231 breast = system: MDA-MB-231 breast
NCI-H522 lung = system: NCI-H522 lung
CAKI-1 renal = system: CAKI-1 renal
A498 renal = system: A498 renal
NCI/ADR-RES ovarian = system: NCI/ADR-RES ovarian
UACC-257 melanoma = system: UACC-257 melanoma

O=C(O)c1ccc(/C=N\N(CCO)C2=NCCN2)cc1
TGI (SNB-19 CNS): > 100 µM
TGI (HCT-15 colon): > 100 µM
TGI (MALME-3M melanoma): > 100 µM
TGI (OVCAR-8 ovarian): > 100 µM
TGI (HOP-92 NSCLC): > 100 µM
TGI (PC-3 prostate): > 100 µM
TGI (DU-145 prostate): > 100 µM
TGI (NCI-H226 lung): > 100 µM
TGI (EKVX NSCLC): > 100 µM
TGI (BT-549 breast): > 100 µM
TGI (ACHN renal): > 100 µM
TGI (SNB-75 CNS): > 100 µM
TGI (HS 578T breast): > 100 µM
TGI (NCI-H23 lung): > 100 µM
TGI (SK-OV-3 ovarian): > 100 µM
TGI (SF-268 CNS): > 100 µM
TGI (HCT-116 colon): > 100 µM
TGI (COLO 205 colon): > 100 µM
TGI (SN12C renal): > 100 µM
TGI (LOX IMVI melanoma): > 100 µM
TGI (TK-10 renal): > 100 µM
TGI (A549 NSCLC): > 100 µM
TGI (HOP-62 NSCLC): > 100 µM
TGI (UACC-62 melanoma): > 100 µM
TGI (NCI-H460 lung): > 100 µM
TGI (MDA-N): > 100 µM
TGI (SK-MEL-28 melanoma): > 100 µM
TGI (SF-295 CNS): > 100 µM
TGI (IGROV1 ovarian): > 100 µM
TGI (SF-539 CNS): > 100 µM
TGI (HCC-2998 colon): > 100 µM
TGI (KM12 colon): > 100 µM
TGI (U251 CNS): > 100 µM
TGI (HT29 colon): > 100 µM
TGI (MDA-MB-435): > 100 µM
TGI (HL-60(TB) leukemia): > 100 µM
TGI (CCRF-CEM leukemia): > 100 µM
TGI (K-562 leukemia): > 100 µM
TGI (RXF 393 renal): > 100 µM
TGI (OVCAR-5 ovarian): > 100 µM
TGI (T-47D breast): > 100 µM
TGI (RPMI-8226 leukemia): > 100 µM
TGI (UO-31 renal): > 100 µM
TGI (SR leukemia): > 100 µM
TGI (SK-MEL-5 melanoma): > 100 µM
TGI (SW-620 colon): > 100 µM
TGI (MCF7 breast): > 100 µM
TGI (MOLT-4 leukemia): > 100 µM
TGI (OVCAR-4 ovarian): > 100 µM
TGI (786-0 renal): > 100 µM
TGI (M14 melanoma): > 100 µM
TGI (OVCAR-3 ovarian): > 100 µM
TGI (SK-MEL-2 melanoma): > 100 µM
TGI (MDA-MB-231 breast): > 100 µM

O=c1[nH]c2cc([N+](=O)[O-])c(N(CCO)CCO)c([N+](=O)[O-])c2[nH]1
TGI (NCI-H522 lung): > 100 µM
TGI (SNB-19 CNS): > 100 µM
TGI (HCT-15 colon): > 100 µM
TGI (MALME-3M melanoma): > 100 µM
TGI (OVCAR-8 ovarian): > 100 µM
TGI (HOP-92 NSCLC): > 100 µM
TGI (PC-3 prostate): > 100 µM
TGI (DU-145 prostate): > 100 µM
TGI (NCI-H226 lung): 71.4 µM
TGI (EKVX NSCLC): 54.4 µM
TGI (BT-549 breast): 51.7 µM
TGI (ACHN renal): > 100 µM
TGI (SNB-75 CNS): 89.4 µM
TGI (HS 578T breast): > 100 µM
TGI (NCI-H23 lung): > 100 µM
TGI (CAKI-1 renal): > 100 µM
TGI (SK-OV-3 ovarian): 89.7 µM
TGI (SF-268 CNS): > 100 µM
TGI (HCT-116 colon): 87.5 µM
TGI (COLO 205 colon): 51.8 µM
TGI (SN12C renal): > 100 µM
TGI (LOX IMVI melanoma): > 100 µM
TGI (A549 NSCLC): > 100 µM
TGI (HOP-62 NSCLC): > 100 µM
TGI (UACC-62 melanoma): 72.1 µM
TGI (NCI-H460 lung): 43.2 µM
TGI (MDA-N): > 100 µM
TGI (SK-MEL-28 melanoma): 91.8 µM
TGI (A498 renal): 66 µM
TGI (SF-295 CNS): > 100 µM
TGI (IGROV1 ovarian): > 100 µM
TGI (SF-539 CNS): 77.1 µM
TGI (KM12 colon): 93.3 µM
TGI (U251 CNS): > 100 µM
TGI (HT29 colon): > 100 µM
TGI (NCI/ADR-RES ovarian): > 100 µM
TGI (MDA-MB-435): 91.7 µM
TGI (HL-60(TB) leukemia): 80.9 µM
TGI (CCRF-CEM leukemia): > 100 µM
TGI (K-562 leukemia): > 100 µM
TGI (UACC-257 melanoma): 59.3 µM
TGI (RXF 393 renal): 49.4 µM
TGI (OVCAR-5 ovarian): > 100 µM
TGI (T-47D breast): 80.5 µM
TGI (RPMI-8226 leukemia): 98.1 µM
TGI (UO-31 renal): > 100 µM
TGI (SR leukemia): > 100 µM
TGI (SK-MEL-5 melanoma): 39.7 µM
TGI (SW-620 colon): > 100 µM
TGI (MCF7 breast): > 100 µM
TGI (MOLT-4 leukemia): 91.7 µM
TGI (OVCAR-4 ovarian): > 100 µM
TGI (786-0 renal): > 100 µM
TGI (M14 melanoma): 89 µM
TGI (OVCAR-3 ovarian): 33.3 µM
TGI (SK-MEL-2 melanoma): 96.1 µM
TGI (MDA-MB-231 breast): > 100 µM

COc1ccc2c(c1)-c1c(c3ccccc3n1CCN1CCOCC1)CC2
TGI (NCI-H522 lung): 37.3 µM
TGI (SNB-19 CNS): 71.5 µM
TGI (HCT-15 colon): > 100 µM
TGI (MALME-3M melanoma): 46.2 µM
TGI (OVCAR-8 ovarian): 53.2 µM
TGI (HOP-92 NSCLC): > 100 µM
TGI (PC-3 prostate): 45.3 µM
TGI (DU-145 prostate): > 100 µM
TGI (NCI-H226 lung): 26.3 µM
TGI (EKVX NSCLC): 63.8 µM
TGI (BT-549 breast): 63.5 µM
TGI (ACHN renal): > 100 µM
TGI (SNB-75 CNS): 49 µM
TGI (HS 578T breast): 32.3 µM
TGI (NCI-H23 lung): 65.6 µM
TGI (CAKI-1 renal): 81.9 µM
TGI (SK-OV-3 ovarian): > 100 µM
TGI (SF-268 CNS): 76.9 µM
TGI (HCT-116 colon): 76.8 µM
TGI (COLO 205 colon): 32.5 µM
TGI (SN12C renal): > 100 µM
TGI (LOX IMVI melanoma): 34.5 µM
TGI (TK-10 renal): 1.78 µM
TGI (A549 NSCLC): > 100 µM
TGI (HOP-62 NSCLC): 74.8 µM
TGI (UACC-62 melanoma): 49.4 µM
TGI (NCI-H460 lung): 34.2 µM
TGI (MDA-N): > 100 µM
TGI (SK-MEL-28 melanoma): > 100 µM
TGI (SF-295 CNS): 35.5 µM
TGI (IGROV1 ovarian): 38.5 µM
TGI (SF-539 CNS): 52.4 µM
TGI (HCC-2998 colon): 34.3 µM
TGI (KM12 colon): 26.7 µM
TGI (U251 CNS): 81.8 µM
TGI (HT29 colon): 25.9 µM
TGI (NCI/ADR-RES ovarian): 46 µM
TGI (MDA-MB-435): > 100 µM
TGI (CCRF-CEM leukemia): 85.8 µM
TGI (K-562 leukemia): 54.5 µM
TGI (UACC-257 melanoma): > 100 µM
TGI (OVCAR-5 ovarian): > 100 µM
TGI (T-47D breast): > 100 µM
TGI (RPMI-8226 leukemia): 97 µM
TGI (UO-31 renal): 96.8 µM
TGI (SR leukemia): 53.3 µM
TGI (SK-MEL-5 melanoma): 31.3 µM
TGI (SW-620 colon): > 100 µM
TGI (MCF7 breast): > 100 µM
TGI (MOLT-4 leukemia): 37.9 µM
TGI (OVCAR-4 ovarian): > 100 µM
TGI (786-0 renal): 54.1 µM
TGI (M14 melanoma): > 100 µM
TGI (OVCAR-3 ovarian): 56.6 µM
TGI (SK-MEL-2 melanoma): 28.9 µM
TGI (MDA-MB-231 breast): 90.9 µM
